The text below walks through data of the METLIN SMRT retention time set (Domingo-Almenara et al. 2019).

Molecules are shown by their SMILES.

The data set is described as follows: gradient 5% acetonitrile 3 min, to 50% in 2 min, to 85% in 15 min, held 3 min, 100 µL/min. The following applies: column: Zorbax Extend-C18 2.1 x 50 mm; eluents: water / acetonitrile, 0.1% formic acid. In outline: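 Values are retention times taken from adduct peaks that software picked and an analyst inspected. The pure standards were run as mixtures of ~100 molecules on HPLC linked to a quadrupole time-of-flight mass spectrometer, in positive and negative ionization mode. A Zorbax Extend-C18 column (2.1 × 50 mm, 1.8 μm) was used at 100 μL/min with water and acetonitrile, each including 0.1% formic acid.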
In turn, `Cn1c(C(=O)N(CCc2ccccc2)Cc2ccccc2)cc2c(=O)n3ccccc3nc21` displayed an RP-LC retention time of 1030 s. `COc1cc(-c2nc3cccc(C)n3c2Nc2ccc(C)cc2)ccc1O` gave an RP-LC retention time of 989 s. The compound `CSc1cccc(NC(=O)Cn2cccc2-c2nc(-c3ccc4c(c3)OCO4)no2)c1` had an RP-LC retention time of 1110 s. Regarding `Cc1nc2c(sc3nc(-c4ccccc4)ccc32)c(=O)n1CC(=O)Nc1ccc(Cl)cc1`, the RP-LC retention time was determined as 1120 s.

For `Cn1c(C(=O)NC2CCCCC2)cc2c(-c3cccs3)nn(-c3ccccc3)c21`, the RP-LC retention time was found to be 1210 s. `COc1ccc(-c2cc(-c3nc4c5sc6nc(C)cc(C)c6c5ncn4n3)[nH]n2)cc1OC` displayed an RP-LC retention time of 919 s.

In the case of `O=C(CCC(=O)N1CC2CCCN2c2ccccc21)NCCN1CCCCCC1` (configuration not stated), the RP-LC retention time came to 646 s. Compound `CCc1nccn1Cc1nc(-c2ccc(Cl)cc2)no1` gave an RP-LC retention time of 670 s. `COc1ccc(NC(=O)Nc2c(-c3ccccc3)nc3ccccn23)cc1OC`: the RP-LC retention time was found to be 612 s. Compound `CCOc1ccc(-c2nc(Cc3noc(-c4ccccc4)n3)c(C)o2)cc1` showed an RP-LC retention time of 1200 s. As to `Cc1cc(C)n(Cc2nc(-c3ccc(NC(=O)c4sccc4C)cc3)oc2C)n1`, the RP-LC retention time stood at 951 s. Compound `Cc1cc(C)n2c(Nc3ccccc3C)c(-c3ccc(O)cc3)nc2n1` registered an RP-LC retention time of 907 s. The result for `COc1ccc(-c2noc(C3CCCN3C(=O)Nc3cc(OC)cc(OC)c3)n2)cc1` (configuration not stated) reads 941 s; that for `CC1=C(c2ccc(Cl)cc2)S(=O)(=O)N=C1N1CCCN(C(=O)c2ccccc2)CC1`, 862 s; that for `CCCn1cc(S(=O)(=O)NCc2ccccc2OC)c2cccnc21`, 890 s. Consider `CCc1nn2c(N3CCN(c4ccccn4)CC3)cc(C)nc2c1-c1ccc(F)cc1`, for which the RP-LC retention time came to 686 s. In turn, `CN(CC1CCOCC1)C(=O)Cc1ccsc1` gave an RP-LC retention time of 691 s. Compound `COc1c(C(=O)NCc2ccc3c(c2)OCO3)sc2ccc(Cl)cc12` displayed an RP-LC retention time of 1070 s. `COC(=O)Nc1ccc2c(c1)C(=O)N(C)CCO2` yielded an RP-LC retention time of 587 s. For `Cc1cc(Cl)ccc1S(=O)(=O)N1CCc2c(c(-c3nc(C4CC4)no3)nn2C)C1`, the RP-LC retention time was found to be 1070 s. In the case of `N#Cc1ccc(C(=O)N2CCN(c3cc(-c4ccc(Cl)cc4)[nH]n3)CC2)cc1`, the RP-LC retention time was found to be 826 s.

In the case of `CCN(CC)c1nc2cc(C(=O)OC)ccc2c(=O)n1-c1cc(F)cc(F)c1`, the RP-LC retention time turned out to be 1180 s. For `CCOc1ccc(NC(=O)NCC(c2cccnc2)c2c[nH]c3ccccc23)cc1` (configuration not stated), the RP-LC retention time stood at 670 s. Compound `CCn1nc(C)n2cc(S(=O)(=O)NCc3ccc(C)o3)cc2c1=O` showed an RP-LC retention time of 815 s. The same measure for `CCOc1ccc(N2CC(c3nc(-c4ccc(OC)c(OC)c4)no3)CC2=O)cc1` (configuration not stated): 882 s. The result for `CC1(C)CC(=O)c2cn(-c3ccccc3)c(=O)c(C(=O)Nc3ccccc3)c2C1` reads 803 s; that for `Cc1noc(C)c1-c1ccc(S(=O)(=O)Nc2ccc(F)c(Cl)c2)cc1`, 969 s.

`Cc1cc(C)c2[nH]c3c(c(=O)c2c1)CN(CC(=O)NCc1ccccc1F)CC3` had an RP-LC retention time of 626 s. The compound `Cc1cnc(C(=O)N[C@@H]2CCC[C@@H]2C(=O)NC(C)C)cn1` yielded an RP-LC retention time of 582 s. In turn, `COc1ccc(OC)c(S(=O)(=O)N2CCCC(C(=O)Nc3cccc(C)c3)C2)c1` (configuration not stated) came in with an RP-LC retention time of 952 s. In turn, `COc1ccc(S(=O)(=O)NCc2cccnc2-c2ccc(C)cc2)cc1` displayed an RP-LC retention time of 679 s. For `Cc1ccc(CNS(=O)(=O)c2ccc(-c3nnc(C4CC4)o3)o2)o1`, the RP-LC retention time was determined as 816 s.
